{
  "source": "patent US11523998B2",
  "about": "“Anti-inflammatory formulations and uses thereof including a combination of palmitoylethanolamide and plant-based polyphenols” (The Texas A&M University System, priority 2018, dated 2022)",
  "key": {"[1]": {"system": "interleukin-1 beta (II-1β)", "test": "Il-1β mRNA expression (RT-qPCR) in LPS-activated RAW 264.7 macrophages", "format": "cell-based, murine", "conditions": "for reduction of IL-1β mRNA expression: 1.0 mg/L alone; for reduction of IL-1β mRNA expression, alone at same molarity: around 3.4 μM (1.0 mg/L quercetin, 0.974 mg/L luteolin)", "method": "RAW 264.7 murine macrophage cell line was purchased from American Type Culture Collection (ATCC-TIB71). Cells were cultured in high glucose Dulbecco's Modified Eagle Medium (DMEM) supplemented with stable glutamine (0.0584%) and sodium pyruvate (0.011%), 10% (v/v) heat-inactivated fetal bovine serum, and 1% (v/v) penicillin/streptomycin mix. Cells were maintained in an incubator at 37° C. with 5% CO2, and the medium was changed every two days. All assays were conducted in cells between the 3rd and the 15th passage. All treatments with PEA and other polyphenols were solubilized in dimethyl sulfoxide (DMSO) and further diluted in complete culture media immediately before use. LPS (10 ng mL-1) was used to induce inflammation in RAW 264.7 cultures.\nMurine RAW 264.7 macrophage cells (1×10^5 cells per well) were seeded in 12-well plates and incubated for 24 hours. Cells were pre-treated with Palmitoylethanolamide (PEA) and other compounds of interest for 1 hour and then lipopolysaccharide (LPS), a major activating agent of macrophages, was added for a final concentration of 10 ng·mL-1. Cells were then incubated for 8 hours. Negative control (culture media only) and positive (LPS) controls, as well as a Vehicle (DMSO at a maximal concentration of 0.2%)+LPS were also performed. Total RNA was extracted and purified using an RNeasy mini kit (QIAGEN, Venlo, Netherlands) according to the manufacturer's protocol. mRNA quality and quantification were assessed with NanoDrop® ND-1000 (NanoDrop Technologies, Wilmington, Del., USA). cDNA synthesis was performed with the iScript Reverse Transcription Supermix (Bio-Rad Laboratories, Hercules, Calif., USA) according to the manufacturer's protocol. RT-qPCR reactions were performed using iTaq Universal Probes Supermix (Bio-Rad Laboratories, Hercules, Calif., USA). mRNA expression cyclooxygenase-2 (Cox-2) and interleukin-1 beta (II-1β) were analyzed using beta-actin (Actb) as a reference gene. The levels of transcripts were calculated relative to the control group by the 2-ΔΔCt method.\n(§1) All data were analyzed by one-way analysis of variance (ANOVA) with Dunnet's or Sidak's posttest using GraphPad Prism 6.0 (GraphPad Software, La Jolla, Calif., USA)."}, "cyclooxygenase-2 (Cox-2)": {"system": "cyclooxygenase-2 (Cox-2)", "test": "Cox-2 mRNA expression (RT-qPCR) in LPS-activated RAW 264.7 macrophages", "format": "cell-based, murine", "conditions": "LPS 10 ng/mL; for downregulation of Cox-2 mRNA expression, compound alone: 9 h", "method": "Cells were maintained in an incubator at 37° C. with 5% CO2, and the medium was changed every two days. All assays were conducted in cells between the 3rd and the 15th passage. All treatments with PEA and other polyphenols were solubilized in dimethyl sulfoxide (DMSO) and further diluted in complete culture media immediately before use.\nCells were pre-treated with Palmitoylethanolamide (PEA) and other compounds of interest for 1 hour and then lipopolysaccharide (LPS), a major activating agent of macrophages, was added for a final concentration of 10 ng·mL-1. Cells were then incubated for 8 hours. Negative control (culture media only) and positive (LPS) controls, as well as a Vehicle (DMSO at a maximal concentration of 0.2%)+LPS were also performed. Total RNA was extracted and purified using an RNeasy mini kit (QIAGEN, Venlo, Netherlands) according to the manufacturer's protocol. mRNA quality and quantification were assessed with NanoDrop® ND-1000 (NanoDrop Technologies, Wilmington, Del., USA). cDNA synthesis was performed with the iScript Reverse Transcription Supermix (Bio-Rad Laboratories, Hercules, Calif., USA) according to the manufacturer's protocol. RT-qPCR reactions were performed using iTaq Universal Probes Supermix (Bio-Rad Laboratories, Hercules, Calif., USA). mRNA expression cyclooxygenase-2 (Cox-2) and interleukin-1 beta (II-1β) were analyzed using beta-actin (Actb) as a reference gene. The levels of transcripts were calculated relative to the control group by the 2-ΔΔCt method.\nas §1"}},
  "data": [
    {"smiles": "Oc1ccc(C=Cc2cc(O)cc(O)c2)cc1", "note": "[resveratrol]", "values": [
      {"measurement": "downregulation of II-1β mRNA expression, compound alone", "setting": "[1]; alone, LPS 10 ng/mL, 9 h", "result": "did not reduce"},
      {"measurement": "downregulation of II-1β mRNA expression, compound alone", "setting": "[1]; alone, LPS 10 ng/mL, 9 h, listed as Resveratrol", "result": "no downregulation"},
      {"measurement": "downregulation of Cox-2 mRNA expression, compound alone", "setting": "cyclooxygenase-2 (Cox-2)", "result": "did not reduce"},
      {"measurement": "downregulation of Cox-2 mRNA expression, compound alone", "setting": "cyclooxygenase-2 (Cox-2); listed as Resveratrol", "result": "no downregulation"}
    ]},
    {"smiles": "COc1cc(/C=C/C(=O)CC(=O)/C=C/c2ccc(O)c(OC)c2)ccc1O", "note": "[curcumin]", "values": [
      {"measurement": "reduction of IL-1β mRNA expression", "setting": "[1]; LPS 10 ng/mL", "result": "~57", "unit": "%"},
      {"measurement": "lowest effective concentration of compound alone (II-1β expression)", "setting": "[1]; LPS 10 ng/mL, 9 h", "result": 1.0, "unit": "mg/L"}
    ]},
    {"smiles": "O=c1c(O)c(-c2ccc(O)c(O)c2)oc2cc(O)cc(O)c12", "note": "[quercetin]", "values": [
      {"measurement": "reduction of IL-1β mRNA expression", "setting": "[1]; LPS 10 ng/mL", "result": "around 45%"},
      {"measurement": "reduction of IL-1β mRNA expression, alone at same molarity", "setting": "[1]; alone, 9 h", "result": 78, "unit": "%"},
      {"measurement": "lowest effective concentration of compound alone (II-1β expression)", "setting": "[1]; LPS 10 ng/mL, 9 h", "result": 1.0, "unit": "mg/L"}
    ]},
    {"smiles": "O=c1cc(-c2ccc(O)c(O)c2)oc2cc(O)cc(O)c12", "note": "[luteolin]", "values": [
      {"measurement": "reduction of IL-1β mRNA expression, alone at same molarity", "setting": "[1]; alone, 9 h", "result": 50, "unit": "%"}
    ]},
    {"smiles": "CCCCCCCCCCCCCCCC(=O)NCCO", "note": "[PEA, N-(2-Hydroxyethyl)hexadecanamide]", "values": [
      {"measurement": "reduction of II-1β expression", "setting": "[1]; 0.5 mg/L alone, LPS 10 ng/mL", "result": 28, "unit": "%"},
      {"measurement": "expression of the inflammatory cytokine II-1β", "setting": "[1]; PEA 2.0 mg/L, after 1.0-10 ng/mL LPS", "result": "significantly decrease"},
      {"measurement": "lowest effective concentration of compound alone (II-1β expression)", "setting": "[1]; LPS 10 ng/mL, 9 h", "result": 0.5, "unit": "mg/L"},
      {"measurement": "expression of Cox-2", "setting": "cyclooxygenase-2 (Cox-2); PEA 2.0 mg/L", "result": "significantly decrease"}
    ]},
    {"smiles": "COc1cc(CNC(=O)CCCC/C=C/C(C)C)ccc1O", "note": "[capsaicin]", "values": [
      {"measurement": "expression of IL-1β, compound alone (screening)", "setting": "[1]; alone, LPS 10 ng/mL, 9 h", "result": "significant reduction"},
      {"measurement": "expression of IL-1β, in combination with PEA (screening)", "setting": "[1]; in combination with PEA, LPS 10 ng/mL, 9 h", "result": "significant reduction"}
    ]},
    {"smiles": "CC(C)Cc1ccc(C(C)C(=O)O)cc1", "note": "(centres unmarked) [ibuprofen]", "values": [
      {"measurement": "inflammatory state of the cells (II-1β and Cox-2 expression, screening)", "setting": "[1]; tested concentration, LPS 10 ng/mL, 9 h", "result": "did not improve the inflammatory state of the cells"}
    ]}
  ]
}
